Source: EP0908457B1, “3-(1,2-benzisothiazol- and isoxazol-5-Y1)-2,4(1H,3H)-pyrimidinedione or thione and 3-(1,2-benzisothiazol- and isoxazol-5-y1)-4(3H)-pyrimidinone or thione herbicidal agents” (BASF AKTIENGESELLSCHAFT, priority 1997, dated 1999)

Tests used:
[1] = system: Echinochloa oryzoides (Ard.) Fritsch.; experiment: Postemergence weed control under flooded paddy conditions, ECHORC (Watergrass (Calif.)); type: in vivo; conditions: rated three to four weeks after treatment
[2] = system: Monochoria vaginalis, Presl.; experiment: Preemergence weed control under flooded paddy conditions, MOOVA (Monochoria); type: in vivo; conditions: preemergence, flooded paddy, rated three to four weeks after treatment; note: meaning of each grade not given here
[3] = system: Echinochloa oryzoides (Ard.) Fritsch.; experiment: Preemergence weed control under flooded paddy conditions, ECHORC (Watergrass (Calif.)); type: in vivo; conditions: preemergence, flooded paddy, rated three to four weeks after treatment; note: meaning of each grade not given here
Cyperus iria [4] = experiment: Postemergence weed control under flooded paddy conditions, CYPIR (Rice Flatsedge); type: in vivo; conditions: rated three to four weeks after treatment
[5] = system: Cyperus serotinus, Rottb.; experiment: Preemergence weed control under flooded paddy conditions, CYPSE (Flatsedge); type: in vivo; conditions: preemergence, rated three to four weeks after treatment; note: meaning of each grade not given here
[6] = system: Monochoria vaginalis, Presl.; experiment: Postemergence weed control under flooded paddy conditions, MOOVA (Monochoria); type: in vivo; conditions: rated three to four weeks after treatment
[7] = system: Cyperus serotinus, Rottb.; experiment: Postemergence weed control under flooded paddy conditions, CYPSE (Flatsedge); type: in vivo; conditions: rated three to four weeks after treatment
[8] = system: Oryza sativa, (L.) Tebonnet; experiment: Rice tolerance to post-transplant applications under flooded paddy conditions (Example 188), ORYSAT (Rice, Tebonnet); conditions: rated three to four weeks after treatment
Sagittaria pygmaea, L. [9] = experiment: Postemergence weed control under flooded paddy conditions, SAGPY (Arrowhead (Pygmaea)); type: in vivo; conditions: rated three to four weeks after treatment
Sagittaria pygmaea, L. [10] = experiment: Preemergence weed control under flooded paddy conditions, SAGPY (Arrowhead (Pygmaea)); type: in vivo; conditions: preemergence, flooded paddy, rated three to four weeks after treatment; note: meaning of each grade not given here
Cyperus iria [11] = experiment: Preemergence weed control under flooded paddy conditions, CYPIR (Rice Flatsedge); type: in vivo; conditions: preemergence, flooded paddy, rated three to four weeks after treatment; note: meaning of each grade not given here
[12] = system: Oryza sativa, (L.) Tebonnet; experiment: Rice tolerance to post-transplant applications under flooded paddy conditions (Example 187), ORYSAT (Rice, Tebonnet); conditions: rated three to four weeks after treatment

CCc1ccc(-c2nsc3ccc(-n4c(=O)cc(C(F)(F)F)n(C)c4=O)cc23)cc1 [Example 5, 3-[3-(p-Ethylphenyl)-1,2-benzisothiazol-5-yl]-1-methyl-6-(trifluoromethyl)-2,4(1H,3H)-pyrimidinedione]
8.0: herbicidal effect rating, CYPSE ([5]; 0.2500 kg/ha) | herbicidal effect rating, ORYSAT (rice tolerance) ([8]; Rate 0.5000 kg/ha) | herbicidal effect rating, SAGPY (Sagittaria pygmaea, L. [9]; Rate 0.5000 kg/ha)
0.0: herbicidal effect rating, CYPSE ([5]; 0.0313 kg/ha) | herbicidal effect rating, CYPSE ([7]; Rate 0.0313 kg/ha) | herbicidal effect rating, CYPSE ([7]; Rate 0.0625 kg/ha) | herbicidal effect rating, CYPSE ([7]; Rate 0.1250 kg/ha) | herbicidal effect rating, CYPSE ([7]; Rate 0.2500 kg/ha) | herbicidal effect rating, CYPSE ([7]; Rate 0.5000 kg/ha) | herbicidal effect rating, SAGPY (Sagittaria pygmaea, L. [10]; 0.0313 kg/ha) | herbicidal effect rating, SAGPY (Sagittaria pygmaea, L. [10]; 0.0625 kg/ha)
3.0: herbicidal effect rating, ORYSAT (rice tolerance) ([12]; 0.0625 kg/ha)
5.0: herbicidal effect rating, ORYSAT (rice tolerance) ([12]; 0.2500 kg/ha)
2.0: herbicidal effect rating, ECHORC ([1]; Rate 0.0313 kg/ha) | herbicidal effect rating, CYPSE ([5]; 0.0625 kg/ha) | herbicidal effect rating, ORYSAT (rice tolerance) ([8]; Rate 0.0313 kg/ha) | herbicidal effect rating, ORYSAT (rice tolerance) ([8]; Rate 0.0625 kg/ha) | herbicidal effect rating, SAGPY (Sagittaria pygmaea, L. [9]; Rate 0.0313 kg/ha) | herbicidal effect rating, SAGPY (Sagittaria pygmaea, L. [9]; Rate 0.0625 kg/ha) | herbicidal effect rating, SAGPY (Sagittaria pygmaea, L. [10]; 0.1250 kg/ha) | herbicidal effect rating, ORYSAT (rice tolerance) ([12]; 0.0313 kg/ha)
4.0: herbicidal effect rating, ORYSAT (rice tolerance) ([8]; Rate 0.1250 kg/ha) | herbicidal effect rating, SAGPY (Sagittaria pygmaea, L. [9]; Rate 0.1250 kg/ha) | herbicidal effect rating, ORYSAT (rice tolerance) ([12]; 0.1250 kg/ha)
6.0: herbicidal effect rating, ECHORC ([1]; Rate 0.1250 kg/ha) | herbicidal effect rating, CYPSE ([5]; 0.1250 kg/ha) | herbicidal effect rating, ORYSAT (rice tolerance) ([8]; Rate 0.2500 kg/ha) | herbicidal effect rating, SAGPY (Sagittaria pygmaea, L. [9]; Rate 0.2500 kg/ha)
9.0: herbicidal effect rating, ECHORC ([1]; Rate 0.2500 kg/ha) | herbicidal effect rating, ECHORC ([1]; Rate 0.5000 kg/ha) | herbicidal effect rating, MOOVA ([2]; 0.0313 kg/ha) | herbicidal effect rating, MOOVA ([2]; 0.0625 kg/ha) | herbicidal effect rating, MOOVA ([2]; 0.1250 kg/ha) | herbicidal effect rating, MOOVA ([2]; 0.2500 kg/ha) | herbicidal effect rating, MOOVA ([2]; 0.5000 kg/ha) | herbicidal effect rating, ECHORC ([3]; 0.0313 kg/ha) | herbicidal effect rating, ECHORC ([3]; 0.0625 kg/ha) | herbicidal effect rating, ECHORC ([3]; 0.1250 kg/ha) | herbicidal effect rating, ECHORC ([3]; 0.2500 kg/ha) | herbicidal effect rating, ECHORC ([3]; 0.5000 kg/ha) | herbicidal effect rating, CYPIR (Cyperus iria [4]; Rate 0.0313 kg/ha) | herbicidal effect rating, CYPIR (Cyperus iria [4]; Rate 0.0625 kg/ha) | herbicidal effect rating, CYPIR (Cyperus iria [4]; Rate 0.1250 kg/ha) | herbicidal effect rating, CYPIR (Cyperus iria [4]; Rate 0.2500 kg/ha) | herbicidal effect rating, CYPIR (Cyperus iria [4]; Rate 0.5000 kg/ha) | herbicidal effect rating, MOOVA ([6]; Rate 0.0313 kg/ha) | herbicidal effect rating, MOOVA ([6]; Rate 0.0625 kg/ha) | herbicidal effect rating, MOOVA ([6]; Rate 0.1250 kg/ha) | herbicidal effect rating, MOOVA ([6]; Rate 0.2500 kg/ha) | herbicidal effect rating, MOOVA ([6]; Rate 0.5000 kg/ha) | herbicidal effect rating, CYPIR (Cyperus iria [11]; 0.0313 kg/ha) | herbicidal effect rating, CYPIR (Cyperus iria [11]; 0.0625 kg/ha) | herbicidal effect rating, CYPIR (Cyperus iria [11]; 0.1250 kg/ha) | herbicidal effect rating, CYPIR (Cyperus iria [11]; 0.2500 kg/ha) | herbicidal effect rating, CYPIR (Cyperus iria [11]; 0.5000 kg/ha)
7.0: herbicidal effect rating, ECHORC ([1]; Rate 0.0625 kg/ha) | herbicidal effect rating, CYPSE ([5]; 0.5000 kg/ha) | herbicidal effect rating, SAGPY (Sagittaria pygmaea, L. [10]; 0.2500 kg/ha) | herbicidal effect rating, SAGPY (Sagittaria pygmaea, L. [10]; 0.5000 kg/ha) | herbicidal effect rating, ORYSAT (rice tolerance) ([12]; 0.5000 kg/ha)

COC(=O)COc1cc(C)c(C)cc1-c1nsc2ccc(-n3c(=O)cc(C(F)(F)F)n(C)c3=O)cc12 [Example 12, Methyl {{6-{5-[3,6-dihydro-3-methyl-4-(trifluoromethyl)-2,6-dioxo-1(2H)-pyrimidinyl]-1,2-benzisothiazol-3-yl}-3,4-xylyl}oxy}acetate]
0.0: herbicidal effect rating, ECHORC ([1]; Rate 0.0313 kg/ha) | herbicidal effect rating, CYPSE ([7]; Rate 0.0313 kg/ha) | herbicidal effect rating, CYPSE ([7]; Rate 0.0625 kg/ha) | herbicidal effect rating, SAGPY (Sagittaria pygmaea, L. [9]; Rate 0.0313 kg/ha) | herbicidal effect rating, SAGPY (Sagittaria pygmaea, L. [9]; Rate 0.0625 kg/ha) | herbicidal effect rating, SAGPY (Sagittaria pygmaea, L. [9]; Rate 0.1250 kg/ha) | herbicidal effect rating, SAGPY (Sagittaria pygmaea, L. [10]; 0.0313 kg/ha)
6.0: herbicidal effect rating, ECHORC ([1]; Rate 0.1250 kg/ha) | herbicidal effect rating, CYPSE ([5]; 0.0313 kg/ha)
9.0: herbicidal effect rating, ECHORC ([1]; Rate 0.2500 kg/ha) | herbicidal effect rating, ECHORC ([1]; Rate 0.5000 kg/ha) | herbicidal effect rating, MOOVA ([2]; 0.0313 kg/ha) | herbicidal effect rating, MOOVA ([2]; 0.0625 kg/ha) | herbicidal effect rating, MOOVA ([2]; 0.1250 kg/ha) | herbicidal effect rating, MOOVA ([2]; 0.2500 kg/ha) | herbicidal effect rating, MOOVA ([2]; 0.5000 kg/ha) | herbicidal effect rating, ECHORC ([3]; 0.0313 kg/ha) | herbicidal effect rating, ECHORC ([3]; 0.0625 kg/ha) | herbicidal effect rating, ECHORC ([3]; 0.1250 kg/ha) | herbicidal effect rating, ECHORC ([3]; 0.2500 kg/ha) | herbicidal effect rating, ECHORC ([3]; 0.5000 kg/ha) | herbicidal effect rating, CYPIR (Cyperus iria [4]; Rate 0.0313 kg/ha) | herbicidal effect rating, CYPIR (Cyperus iria [4]; Rate 0.0625 kg/ha) | herbicidal effect rating, CYPIR (Cyperus iria [4]; Rate 0.1250 kg/ha) | herbicidal effect rating, CYPIR (Cyperus iria [4]; Rate 0.2500 kg/ha) | herbicidal effect rating, CYPIR (Cyperus iria [4]; Rate 0.5000 kg/ha) | herbicidal effect rating, MOOVA ([6]; Rate 0.0313 kg/ha) | herbicidal effect rating, MOOVA ([6]; Rate 0.0625 kg/ha) | herbicidal effect rating, MOOVA ([6]; Rate 0.1250 kg/ha) | herbicidal effect rating, MOOVA ([6]; Rate 0.2500 kg/ha) | herbicidal effect rating, MOOVA ([6]; Rate 0.5000 kg/ha) | herbicidal effect rating, SAGPY (Sagittaria pygmaea, L. [9]; Rate 0.5000 kg/ha) | herbicidal effect rating, SAGPY (Sagittaria pygmaea, L. [10]; 0.2500 kg/ha) | herbicidal effect rating, SAGPY (Sagittaria pygmaea, L. [10]; 0.5000 kg/ha) | herbicidal effect rating, CYPIR (Cyperus iria [11]; 0.0313 kg/ha) | herbicidal effect rating, CYPIR (Cyperus iria [11]; 0.0625 kg/ha) | herbicidal effect rating, CYPIR (Cyperus iria [11]; 0.1250 kg/ha) | herbicidal effect rating, CYPIR (Cyperus iria [11]; 0.2500 kg/ha) | herbicidal effect rating, CYPIR (Cyperus iria [11]; 0.5000 kg/ha) | herbicidal effect rating, ORYSAT (rice tolerance) ([12]; 0.5000 kg/ha)
8.0: herbicidal effect rating, CYPSE ([5]; 0.1250 kg/ha) | herbicidal effect rating, ORYSAT (rice tolerance) ([12]; 0.2500 kg/ha)
4.0: herbicidal effect rating, ORYSAT (rice tolerance) ([8]; Rate 0.0313 kg/ha) | herbicidal effect rating, ORYSAT (rice tolerance) ([8]; Rate 0.0625 kg/ha) | herbicidal effect rating, SAGPY (Sagittaria pygmaea, L. [9]; Rate 0.2500 kg/ha) | herbicidal effect rating, SAGPY (Sagittaria pygmaea, L. [10]; 0.1250 kg/ha) | herbicidal effect rating, ORYSAT (rice tolerance) ([12]; 0.0313 kg/ha)
2.0: herbicidal effect rating, ECHORC ([1]; Rate 0.0625 kg/ha) | herbicidal effect rating, CYPSE ([7]; Rate 0.5000 kg/ha) | herbicidal effect rating, SAGPY (Sagittaria pygmaea, L. [10]; 0.0625 kg/ha)
7.0: herbicidal effect rating, CYPSE ([5]; 0.0625 kg/ha) | herbicidal effect rating, CYPSE ([5]; 0.2500 kg/ha) | herbicidal effect rating, CYPSE ([5]; 0.5000 kg/ha) | herbicidal effect rating, ORYSAT (rice tolerance) ([8]; Rate 0.1250 kg/ha) | herbicidal effect rating, ORYSAT (rice tolerance) ([8]; Rate 0.2500 kg/ha) | herbicidal effect rating, ORYSAT (rice tolerance) ([8]; Rate 0.5000 kg/ha) | herbicidal effect rating, ORYSAT (rice tolerance) ([12]; 0.0625 kg/ha) | herbicidal effect rating, ORYSAT (rice tolerance) ([12]; 0.1250 kg/ha)
